# Measured values taken from publication PMC6778019 (Contraception, 2019).
# Like-named read-outs stand apart in the source and are kept apart here.
# Columns and labels:
# [1] = cited from earlier work; for LNG AUC / EE AUC: COC EE 30 mcg / norgestrel 300 mcg
# [2] = Steady-state pharmacokinetics of LNG and EE from day 21 of a COC cycle; format: in vivo, HIV-positive women; details: for AUClast Change (%) / AUCτ Change (%) / CL Change (%) / Cmax Change (%) / Cmin Change (%) / T1/2 Change (%) / Tmax Change (%) / Vss Change (%): Ritonavir arm vs control arm; for concentration at 24 h: oral, concentration 24 h after the last dose; for concentration at 24 h / AUC / Cmax: mean±SD; for AUC: LNG AUCτ, AUC 24 h of the last dose of the 21-day cycle; for Cmax: last dose of the cycle
# [3] = cited from earlier work
# [4] = female, human, serum, po, T1/2, Ritonavir arm, half-life by NCA, median
# [5] = COC users taking protease inhibitors
smiles,measurement,setting,value
C#CC1(O)CC[C@H]2[C@@H]3CCC4=CC(=O)CC[C@@H]4[C@H]3CC[C@@]21CC (stereo partly drawn) [norgestrel],increase in norgestrel AUC,[1]; women taking ARV vs not taking ARV medication,approximately 30%
"C#C[C@]1(O)CC[C@H]2[C@@H]3CCC4=CC(=O)CC[C@@H]4[C@H]3CC[C@@]21CC [LNG, levonorgestrel]",LNG AUC,[1]; women not taking nevirapine,114 ng·mL/h
same,LNG AUC,[1]; women taking nevirapine,147 ng·mL/h
same,AUClast Change (%),[2],32.0%
same,AUCτ Change (%),[2],32.6%
same,CL Change (%),[2],−16.7%
same,Cmax Change (%),[2],27.0%
same,Cmin Change (%),[2],34.4%
same,T1/2 Change (%),[2],8.2%
same,Tmax Change (%),[2],33.3%
same,Vss Change (%),[2],−13.2%
same,half-life,"[2]; female, human, in vivo, po",42.6 h
same,concentration at 24 h,"[2]; female, human, serum, LNG Cmin, Control arm (n=10)",3.7 ± 1.29 ng/mL
same,concentration at 24 h,"[2]; female, human, serum, LNG Cmin, Ritonavir arm (n=5)",4.97 ± 1.15 ng/mL
same,AUC,"[2]; female, human, serum, po, Control arm (n=10)",113 ± 37 ng·h/mL
same,AUC,"[2]; female, human, serum, po, Ritonavir arm (n=5)",150 ± 28 ng·h/mL
same,Cmax,"[2]; female, human, serum, po, LNG Cmax, Control arm (n=10)",7.62 ± 2.29 ng/mL
same,Cmax,"[2]; female, human, serum, po, LNG Cmax, Ritonavir arm (n=5)",9.68 ± 1.81 ng/mL
same,half-life,[2]; [4],46.2 h
same,increase in LNG exposure,[2]; women on ritonavir vs control,approximately 30%
C#C[C@]1(O)CC[C@H]2[C@@H]3CCC4=CC(=O)CC[C@@H]4[C@H]3CC[C@@]21C [norethindrone],decrease in norethindrone AUC,[3]; [5],18%
same,increase in AUC of norethindrone,[3]; [5],110%
same,increase in norethindrone AUC,"[3]; norethindrone progestin-only pill, women using ritonavir",50%
"C#C[C@]1(O)CC[C@H]2[C@@H]3CCc4cc(O)ccc4[C@H]3CC[C@@]21C [EE, ethinyl estradiol]",EE AUC,[1]; women not taking nevirapine,1457 ng·mL/h
same,EE AUC,[1]; women taking nevirapine,1384 ng·mL/h
same,AUClast Change (%),[2],18.2%
same,AUCτ Change (%),[2],21.8%
same,CL Change (%),[2],−15.1%
same,Cmax Change (%),[2],33.7%
same,Cmin Change (%),[2],8.5%
same,T1/2 Change (%),[2],10.5%
same,Tmax Change (%),[2],0.0%
same,Vss Change (%),[2],−24.1%
same,Tmax,"[2]; Ritonavir arm, median (95% Confidence interval)","1.0 (1.0,2.9) h"
same,Vss,"[2]; Ritonavir arm, volume at steady state by NCA, median (95% Confidence interval)","475 (370,671) L"
same,"EE pharmacokinetic profiles, ritonavir vs control",[2]; comparison between groups,not different between groups
same,concentration at 24 h,"[2]; female, human, serum, EE Cmin, Control arm (n=10)",0.0492 ± 0.0141 ng/mL
same,concentration at 24 h,"[2]; female, human, serum, EE Cmin, Ritonavir arm",0.0533 ± 0.0147 ng/mL
same,Tmax,"[2]; female, human, serum, po",1 h
same,Cmax,"[2]; female, human, serum, po, EE Cmax, Control arm (n=10)",0.163 ± 0.0438 ng/mL
same,half-life,"[2]; female, human, serum, po, T1/2, Control arm (n=10), half-life by NCA, median",28.4 h
same,half-life,[2]; [4],31.3 h
